Experiments:
Format in all cases: in vivo
[1] = system: Cowpea Aphid (Aphis craccivora); experiment: Activity against cowpea aphid, sprayed potted cowpea plants (II.3); details: population reduction assessed after 72 hours, in comparison with untreated controls
Description: The active compounds were formulated in 50:50 (vol:vol) acetone:water. The test solution was prepared at the day of use.
Potted cowpea plants colonized with 100-150 aphids of various stages were sprayed after the pest population had been recorded. Population reduction was assessed after 72 hours.

[2] = system: Kanzawa Spider Mite (Tetranychus kanzawai); experiment: Kanzawa spider mite, sprayed potted cotton plants (II.7.a); details: 300 ppm; population reduction assessed after 24, 72 and 120 hours; in comparison with untreated controls
Description: The active compounds were dissolved at the desired concentration in a mixture of 1:1 (vol:vol) acetone:water. The test solutions were prepared at the day of use.
Potted cotton plants colonized with approximately 50 mites of various stages were sprayed after the pest population had been recorded. Population reductions (or increases) after 24, 72 and 120 hours were assessed.

[3] = system: Diamond Back Moth (Plutella xylostella); experiment: Diamond back moth, larvae sprayed with test solution (II.1.a); details: 500 ppm; third-instar larvae sprayed; mortality recorded 24, 72 and 120 hours after treatment; in comparison with untreated controls
Description: The active compound was dissolved at the desired concentration in a mixture of 1:1 (vol:vol) acetone:water. The test solution was prepared at the day of use.
Ten, third-istar larvae are sprayed with 1 ml test solution and introduced to untreated leaves held in a petri dish that was lined with moist filter paper. Mortality was recorded 24, 72 and 120 hours after treatment.

SMILES: O=c1c2ccccc2ncn1-c1ccnc(SCC(F)(F)F)n1 [Compound I-6, 3-[2-(2,2,2-Trifluoro-ethylsulfanyl)-pyrimidin-4-yl]-3H-quinazolin-4-one]
- mortality at 300 ppm [1]: ≥ 50%

SMILES: Cc1cc(F)c(-n2cnc3ccccc3c2=O)cc1[S+]([O-])CC(F)(F)F (stereo not shown) [Compound I-2, 2-(2,2,2-trifluoroethylsufinyl)-4-(4-oxo-quinazolin-3-yl)-5-fluoro-toluol]
- mortality [2]: 100%

SMILES: Cc1cc(F)c(-n2cnc3ccccc3c2=O)cc1SCC(F)(F)F [Compound I-1, 2-(2,2,2-trifluoroethylsufanyl)-4-(4-oxo-quinazolin-3-yl)-5-fluoro-toluol]
- mortality [2]: 100%

SMILES: Cc1cc(F)c(-n2c(C)nc3ccccc3c2=O)cc1SCC(F)(F)F [Compound I-3, 2-(2,2,2-trifluoroethylsufanyl)-4-(2-methyl-4-oxo-quinazolin-3-yl)-5-fluoro-toluol]
- mortality [3]: 100%

— patent US8765774B2, “3-arylquinazolin-4-one compounds for combating invertebrate pests” (BASF SE, priority 2009, dated 2014)
